# Reference: patent US4329347A, “Cardiotonic and antithrombotic sulfur-containing derivatives of carbostyril” (Boehringer Ingelheim GmbH, priority 1978, dated 1982)
# Like-named read-outs stand apart in the source and are kept apart here.
# Experiments:
# [1] = tested on: Platelet Thromboses in the Rat; test: Influence on platelet thromboses in the rat (electrical irritation of a vein); assay type: in vivo; settings: male rats, five animals per dose, 20 minutes observation, vs. untreated group; dose not given
# Procedure: Literature: H. Poliwoda, J. Lilli, G. Hagemann, D. Schyma: Z. ges. exp. Med., 145, 252 (1968)
# Male rats (body weight between 70 and 90 grams) received an intraperitoneal Nembutal anesthesia (dose: 50 to 60 mg/kg). To avoid hypothermia, they were positioned on a heated test table (about 37° C.). The respiratory passage was held free by insertion of a tracheal cannula.
# After a transverse abdominal incision was made, an intestinal loop was exposed and fixed, and a vein, with a diameter of about 300 μ was prepared. A monopolar platinum electrode embedded in glass and having a tip diameter of about 100μ was applied to the vein as an irritating cathode. The indifferent electrode was applied to the same vessel opposite the cathode. The irritation was provoked by 150 volts of direct current for a period of 100 milliseconds. After the irritation, the area of observation was continuously rinsed with warm (37° C.) physiological salt solution.
# The formation and growth of the thrombosis was followed under a binocular microscope over a time period of 20 minutes. During the entire period of observation, the percentage of the vessel volume closed by the thrombosis was estimated at different time intervals.
# Five animals per dose were used, and the results were averaged.
# In the test compound experiments, the average size of the thrombosis in the treated animal group was compared with that of an untreated animal group. The result was given as "percentage reduction of the average thrombosis size." The following table contains the values obtained.
# [2] = tested on: phosphodiesterase (PDE), supernatant of human blood platelets; test: PDE inhibition (3H-cAMP hydrolysis); assay type: biochemical; settings: human blood platelet PDE, 1 μmol/liter 3H-cAMP, pH 7.4, 15 minutes, 37° C.
# Procedure: cAMP is hydrolysed to AMP by phosphodiesterase (PDE) from various sources, including blood platelets. This hydrolysis is inhibited by PDE inhibitors according to the concentration.
# The phosphodiesterase used was the 10,000×g supernatant of human blood platelets which had been frozen with water and thawed out again.
# An amount of 0.3 ml of a mixture which contained 0.1 mole/liter of trihydroxy-aminomethane (pH 7.4), 3 mmole/liter of magnesium chloride, 1 mmole/liter of AMP, 1 μmol/liter of ^3 H-cAMP (specific activity about 10 MBq/μmol), PDE as well as the substance to be tested and water for the control were incubated for 15 minutes at 37° C.
# The incubation was stopped by the addition of 0.5 ml of zinc sulfate (0.266 mole/liter) and 0.5 ml of barium hydroxide (0.266 mole/liter), the precipitate was centrifuged and the activity remaining in the supernatant of the unreacted ^3 H-cAMP was determined. From a comparison of the substance preparations and the control preparations, the concentration for a 50% inhibiting activity (IC50) of the respective substance was calculated.
# [3] = tested on: thrombocyte aggregation in platelet-rich plasma of healthy human donors; test: Thrombocyte aggregation inhibiting activity by the method of Born and Cross (platelet-rich plasma); assay type: cell-based; settings: optical density
# Procedure: 1. Determination of the thrombocyte aggregation inhibiting activity by the method of Born and Cross [J. Physiol. 170, 397 (1964)]:
# The thrombocyte aggregation was measured in the platelet-rich plasma of healthy human donors. The decrease in optical density was measured and recorded photometrically after the addition of adenosine diphosphate or collagen. From the angle of inclination of the density curve, the rate of aggregation was estimated (Vmax). The optical density was taken as the point on the curve where the most light was transmitted (O.D.).
# The EC50 values in the tables indicate the optical density.
# Small doses of collagen were chosen, but sufficient to give irreversible aggregation. To provoke maximum aggregation, about 0.01 ml of the collagen solution was added to 1 ml of platelet-rich plasma. (Commercial collagen of Hormonchemie, Munich). The adenosine diphosphate (ADP) doses were chosen to give only the first phase of the BORN curve. The necessary amount of ADP was about 1×10^-6 mol/l. Commercial ADP of Boehringer Mannheim was used.
# The substance dose which produced a 50% inhibition of the thrombozytes aggregation (EC50) was determined graphically.
# [4] = tested on: conscious mice; test: Prolongation of the bleeding time (mouse tail); assay type: in vivo; settings: po, 10 mg/kg orally, after 1 hour, compared to control group, read-out: Prolongation of the bleeding time in % after one hour
# Procedure: The function of the thrombocytes can be determined by measuring the bleeding time. The normal bleeding time in human beings is in the range of 1 to 3 minutes and needs intact thrombozytes in a sufficient number. If the number of thrombocytes is normal and the bleeding time is prolonged, this signifies a disturbed function of the thrombocytes. This is found in some congenital defects of thrombocyte function (V. Willebrand's disease, for example). If, on the other hand it is the aim to prevent spontaneous aggregation of the thrombocytes and occlusion in the arterial system by antithrombotic drugs, the bleeding time should be prolonged as a consequence. Therefore, using antithrombotic substances, a prolongation of the bleeding time is expected. If the plasma coagulation system is not influenced by such a medicine, coagulation tests will give a normal result.
# To measure the bleeding time, 10 mg/kg of the test compound is administered orally to conscious mice. After 1 hour, 0.5 mm of the tip of the mousetail is cut off and droplets of blood are gently removed with filter paper every 30 second. The number of drops of blood give a measure for the bleeding time (5 animals/experiment).
# The numbers in the following table represent the prolongation in % compared to the control group.
# [5] = tested on: mice; test: Acute toxicity, oral; assay type: in vivo; settings: single oral dose of 1,000 mg/kg, 14 days observation
# Procedure: (§1) The acute toxicity of the test compounds was determined on groups of 10 mice each after oral administration of a single dose of 1,000 mg/kg (observation time: 14 days).
# [6] = Acute toxicity, oral; assay type: in vivo; settings: mouse, in vivo; mice, single oral dose, 14 days observation; read-out: Acute Toxicity per os
# Procedure: as §1
# [7] = ADP-induced (about 1×10^-6 mol/l), read-out: EC50 (50% inhibition of thrombocyte aggregation), ADP
# [8] = collagen-induced, read-out: EC50 (50% inhibition of thrombocyte aggregation), Collagen
Structure (SMILES),Percentage Reduction of the Average Thrombosis Size [1],IC50 [2],"EC50 [3, 7]","EC50 [3, 8]",change in vivo at 10 mg/kg [4],animals died (acute toxicity per os) [5],LD50 at 336 h [6]
"O=c1ccc2cc(OCCCC[S+]([O-])c3ccccc3)ccc2[nH]1 (stereo not drawn) [N, 6-(4-Phenylsulfinyl-butoxy)-carbostyril]",24%,470 nM,3000 nM,600 nM,,,
"O=C1CCc2cccc(OCCCCSc3ccccc3)c2N1 [II, 8-(4-Phenylmercapto-butoxy)-3,4-dihydro-carbostyril]",4%,,,,,,
"Nc1c(Br)cc([S+]([O-])CCCCOc2ccc3[nH]c(=O)ccc3c2)cc1Br (stereo not drawn) [BB, 6-[4-(3,5-Dibromo-4-aminophenylsulfinyl)-butoxy]-carbostyril]",,50 nM,,,,,
"O=C1CCc2cc(OCCCCS(=O)(=O)c3ccc(Cl)c(Cl)c3)ccc2N1 [R, 6-[4-(3,4-Dichlorophenyl-sulfonyl)-butoxy]-3,4-dihydro-carbostyril]",,1800 nM,25000 nM,1500 nM,30%,0 out of 10 animals,> 1000 mg/kg
"O=C1CCc2cc(OCCCC[S+]([O-])Cc3ccccc3)ccc2N1 (stereo not drawn) [H, 6-(4-Benzylsulfinyl-butoxy)-3,4-dihydro-carbostyril]",,1600 nM,14000 nM,2500 nM,29%,0 out of 10 animals,> 1000 mg/kg
"O=C1CCc2cc(OCCCCSc3ccccc3)ccc2N1 [A, 6-(4-Phenylmercapto-butoxy)-3,4-dihydro-carbostyril]",,780 nM,> 100000 nM,50000 nM,145%,0 out of 10 animals,> 1000 mg/kg
"O=C1CCc2cc(OCCCCSc3ccccn3)ccc2N1 [D, 6-[4-(2-Pyridyl-mercapto)-butoxy]-3,4-dihydro-carbostyril]",,1600 nM,> 100000 nM,45000 nM,76%,0 out of 10 animals,> 1000 mg/kg
"O=C1CCc2cc(OCCCC[S+]([O-])c3ccc(C4CCCCC4)cc3)ccc2N1 (stereo not drawn) [CC, 6-[4-(4-Cyclohexylphenylsulfinyl)-butoxy]-3,4-dihydro-carbostyril]",,1600 nM,,,,,
"Nc1c(Br)cc([S+]([O-])CCCCOc2ccc3c(c2)CCC(=O)N3)cc1Br (stereo not drawn) [AA, 6-[4-(3,5-Dibromo-4-aminophenylsulfinyl)-butoxy]-3,4-dihydrocarbostyril]",,250 nM,,,,,
"O=c1ccc2cc(OCCCC[S+]([O-])c3ccccn3)ccc2[nH]1 (stereo not drawn) [JJ, 6-[4-(2-Pyridylsulfinyl)-butoxy]-carbostyril]",29%,,,,,,
"Cc1cc(=O)[nH]c2ccc(OCCCC[S+]([O-])c3ccccn3)cc12 (stereo not drawn) [KK, 4-Methyl-6-[4-(2-pyridylsulfinyl)-butoxy]-carbostyril]",17%,,,,,,
"O=c1ccc2cc(OCCCC[S+]([O-])C3CCCCC3)ccc2[nH]1 (stereo not drawn) [X, 6-(4-Cyclohexylsulfinyl-butoxy)-carbostyril]",,700 nM,,,,,
"CC(C)(C)[S+]([O-])CCCCOc1ccc2c(c1)CCC(=O)N2 (stereo not drawn) [HH, 6-(4-tert.Butylsulfinyl-butoxy)-3,4-dihydrocarbostyril]",19%,,,,,,
"CN(C(=O)C[S+]([O-])CCOc1ccc2[nH]c(=O)ccc2c1)C1CCCCC1 (stereo not drawn) [Z, 6-[2-(N-Methyl-N-cyclohexyl-carbamidomethyl-sulfinyl)-ethoxy]-carbostyril]",,500 nM,,,,,
"O=c1ccc2cc(OCCCC[S+]([O-])c3ccc(Cl)c(Cl)c3)ccc2[nH]1 (stereo not drawn) [P, 6-[4-(3,4-Dichlorophenyl-sulfinyl)-butoxy]-carbostyril]",15%,220 nM,1800 nM,200 nM,12%,0 out of 10 animals,> 1000 mg/kg
"O=c1ccc2c(Br)c(OCCCC[S+]([O-])c3ccccc3)ccc2[nH]1 (stereo not drawn) [Y, 5-Bromo-6-(4-phenylsulfinyl-butoxy)-carbostyril]",,100 nM,,,,,
"O=C1CCc2cc(OCCCC[S+]([O-])C3CCCCC3)ccc2N1 (stereo not drawn) [K, 6-(4-Cyclohexylsulfinyl-butoxy)-3,4-dihydro-carbostyril]",,2500 nM,12000 nM,4500 nM,12%,0 out of 10 animals,> 1000 mg/kg
"O=c1ccc2cc(OCCCC[S+]([O-])c3ccc(-c4ccccc4)cc3)ccc2[nH]1 (stereo not drawn) [V, 6-[4-(4-Biphenylylsulfinyl)-butoxy]-carbostyril]",,120 nM,,,,,
"O=c1ccc2cc(OCCCC[S+]([O-])c3ccc(C4CCCCC4)cc3)ccc2[nH]1 (stereo not drawn) [DD, 6-[4-(4-Cyclohexylphenylsulfinyl)-butoxy]-carbostyril]",11%,40 nM,,,,,
"CC(C)(C)c1cc([S+]([O-])CCCCOc2ccc3[nH]c(=O)ccc3c2)cc(C(C)(C)C)c1O (stereo not drawn) [O, 6-[4-(4-Hydroxy-3,5-di-tert. butylphenyl-sulfinyl)-butoxy]-carbostyril]",17%,79 nM,500 nM,200 nM,73%,0 out of 10 animals,> 1000 mg/kg
"CC(C)(C)c1ccc([S+]([O-])CCCCOc2ccc3[nH]c(=O)ccc3c2)cc1 (stereo not drawn) [EE, 6-[4-(4-tert.-Butylphenylsulfinyl)-butoxy]-carbostyril]",,30 nM,,,,,
"O=c1ccc2cc(OCCCC[S+]([O-])c3ccc4ccccc4n3)ccc2[nH]1 (stereo not drawn) [W, 6-[4-(2-Quinolylsulfinyl)-butoxy]-carbostyril]",,140 nM,,,,,
"O=C1CCc2cc(OCC[S+]([O-])c3ccccc3)ccc2N1 (stereo not drawn) [G, 6-(2-Phenylsulfinyl-ethoxy)-3,4-dihydro-carbostyril]",,3400 nM,17000 nM,3500 nM,5%,0 out of 10 animals,> 1000 mg/kg
